Data reported in patent US10041937B2, “Macrophage identification agent, and identification method, sorting method, evaluation method, screening method and kit using the macrophage identifier agent” (CANON KABUSHIKI KAISHA, priority 2013, dated 2018).

Tested on: M1 macrophages and M2 macrophages differentiated from mouse bone marrow cells
Test: Subtype identification by staining and flow cytometry of M1 and M2 macrophages differentiated from mouse bone marrow cells
Type: cell-based, Balb/c mouse
Description: The culture of subtypes was performed according to a protocol described in NPL 7. Specifically, bone marrow cells collected from the femur of a Balb/c mouse of 8 to 10 weeks old were dispersed to a concentration of 1×10^6/mL in an IMDM containing 20% FBS and 1% P/S, and 1×10^7 cells were seeded in a 100 mm dish. After further adding an M-CSF (manufactured by Pepro Tech) thereto to a concentration of 50 ng/mL, the cells were incubated for 3 to 4 days in the presence of 5% CO2 at 37° C., so as to differentiate macrophage precursor cells to macrophages. After exchanging the medium, the M-CSF was added to a concentration of 50 ng/mL, and the incubation was performed for further 3 to 4 days in the presence of 5% CO2 at 37° C., and then, the resulting cells were differentiated to macrophage. By adding 200 ng of interferon-γ and 1 μg of […] (both manufactured by Pepro Tech) to the IMDM containing 5% FBS and 1% P/S, the cells were differentiated to the subtype M1. Besides, by adding 100 ng of IL-4 to the IMDM containing 5% FBS and 1% P/S, the cells were differentiated to the subtype M2. After performing the incubation for further 3 days in the presence of 5% CO2 at 37° C., the resultant was rinsed with PBS, and PBS containing 0.25% trypsin and 1 mM EDTA (ethylenediaminetetraacetic acid) was used for collecting, from the dish, the macrophages having been differentiated to the subtypes M1 and M2.
Thereafter, the tube was centrifuged at 180 G for 10 minutes to remove the supernatant, a dye for identifying dead cells (aqua fluorescent reactive dye, manufactured by Invitrogen; which is hereinafter sometimes abbreviated as aqua) was added thereto, and the resultant was incubated at 4° C. for 10 minutes. Subsequently, the tube was centrifuged at 180 G for 10 minutes to remove the supernatant, cells were suspended in a FACS buffer to be analyzed by using FACSCanto (trademark) II flow cytometry apparatus manufactured by BD.
The analysis was performed on a cell population showing a low signal for the aqua, so as to analyze a cell population from which dead cells were eliminated. […] A histogram was prepared by plotting fluorescence intensity obtained in the FITC channel on the abscissa and plotting the number of cells at each fluorescence intensity on the ordinate, which is shown in FIG. 2.
Histograms were prepared by plotting fluorescence intensities obtained in the respective channels on the abscissa and plotting the numbers of cells at each fluorescence intensity on the ordinate. A difference between a fluorescence intensity (FM1) at a peak top of the histogram of the M1 macrophage and a fluorescence intensity (FM2) at a peak top of the histogram of the M2 macrophage is divided by a sum of a peak width (WM1) of the histogram of the M1 macrophage and a peak width (WM2) of the histogram of the M2 macrophage, so as to obtain a resolution R, which was used as an index of the identification ability for a subtype (see the following expression (1)). Resolution R=|FM1−FM2|/(WM1+WM2) Expression (1)

[1] = M1 vs M2 macrophages from mouse bone marrow cells, general formula (11) dyes (Table 9)
[2] = class based on resolution R, general formula (11) dyes (Table 9)
[3] = mouse bone marrow-derived M1 macrophages, channel listed per compound, general formula (11) dyes (Table 9)
[4] = mouse bone marrow-derived M2 macrophages, channel listed per compound, general formula (11) dyes (Table 9)
[5] = R=|FM1−FM2|/(WM1+WM2), compound 1 μM
[6] = fluorescence intensity at peak top of histogram, compound 1 μM, 37° C., 30 minutes
[7] = M1 vs M2 macrophages from mouse bone marrow cells, general formula (10) dyes (Table 8)
[8] = class based on resolution R, general formula (10) dyes (Table 8)
[9] = mouse bone marrow-derived M1 macrophages, channel listed per compound, general formula (10) dyes (Table 8)
[10] = mouse bone marrow-derived M2 macrophages, channel listed per compound, general formula (10) dyes (Table 8)

Compound	Resolution ratio R [5]	Peak position of M1 macrophage [6]	Peak position of M2 macrophage [6]	Evaluation of macrophage subtype identification (rated from resolution R)	other results
Cc1cc(C)n2c1C=C1C=CC(CCC(=O)NN)=[N+]1[B-]2(F)F [(166)]					Resolution ratio R [1]: 0.722; Evaluation of macrophage subtype identification [2]: A (The compound is very good in the subtype identification (namely, the resolution R is 0.5 or more)); Peak position of M1 macrophage [3]: 127; Peak position of M2 macrophage [4]: 56.3
O=C(O)CCCCCN1C(=O)/C(=C\c2ccc3c(c2)C2CCCC2N3c2ccccc2)SC1=S (stereo not shown) [(17)]	0.577	7.74	16.5	A (The compound is very good in the subtype identification (namely, the resolution R is 0.5 or more))	
CC1=NN(c2ccc(C(=O)O)cc2)C(=O)/C1=C\c1ccc2c(c1)C1CCCC1N2c1ccccc1 (stereo not shown) [(35)]	0.192	1.15	1.29	B (the compound is good in the subtype identification (namely, the resolution R is 0.15 or more and less than 0.5))	
CC1(C)C(/C=C/c2ccc3c(c2)C2CCCC2N3c2ccc(C=C(c3ccccc3)c3ccccc3)cc2)=[N+](CCC(=O)O)c2ccccc21 (stereo not shown) [(59)]	0.733	188	325	A (The compound is very good in the subtype identification (namely, the resolution R is 0.5 or more))	
O=C(O)CCN1C(=O)/C(=C\c2ccc3c(c2)C2CCCC2N3c2ccccc2)SC1=S (stereo not shown) [(13)]	0.714	7.74	20.4	A (The compound is very good in the subtype identification (namely, the resolution R is 0.5 or more))	
CC1(C)C(/C=C/C=C/C=C/C=C2\N(CCCCS(=O)(=O)[O-])c3ccccc3C2(C)C)=[N+](CCCCS(=O)(=O)[O-])c2ccccc21.[Na+] [(88)]					Resolution ratio R (M1 vs M2 macrophages from mouse bone marrow cells, general formula (6) dyes (Table 7)): 0.241; Evaluation of macrophage subtype identification (class based on resolution R, general formula (6) dyes (Table 7)): B (the compound is good in the subtype identification (namely, the resolution R is 0.15 or more and less than 0.5)); Peak position of M1 macrophage (mouse bone marrow-derived M1 macrophages, channel listed per compound, general formula (6) dyes (Table 7)): 0.95; Peak position of M2 macrophage (mouse bone marrow-derived M2 macrophages, channel listed per compound, general formula (6) dyes (Table 7)): 1.48
O=C(O)CCN1C(=O)/C(=C\c2cc(Br)c3c(c2)C2CCCC2N3c2ccc(Br)cc2)SC1=S (stereo not shown) [(11)]	0.544	30.5	16.2	A (The compound is very good in the subtype identification (namely, the resolution R is 0.5 or more))	
O=C(O)CCN1C(=O)/C(=C\c2ccc3c(c2)C2CCCC2N3c2ccc(C=C(c3ccccc3)c3ccccc3)cc2)SC1=S (stereo not shown) [(32)]	0.476	88.7	155	B (the compound is good in the subtype identification (namely, the resolution R is 0.15 or more and less than 0.5))	
O=C(O)Cn1c(=O)/c(=C\c2ccc3c(c2)C2CCCC2N3Cc2ccccc2)s/c1=C1/SC(=S)N(Cc2ccccc2)C1=O (stereo not shown) [(53)]	0.650	128	190	A (The compound is very good in the subtype identification (namely, the resolution R is 0.5 or more))	
CCOC(=O)CN1C(=O)/C(=C\c2ccc3c(c2)C2CCCC2N3c2ccc(OC)cc2)SC1=S (stereo not shown) [(21)]	0.351	40.0	20.3	B (the compound is good in the subtype identification (namely, the resolution R is 0.15 or more and less than 0.5))	
CCN1C(=O)S/C(=c2/s/c(=C/c3ccc4c(c3)C3CCCC3N4c3ccc(OC)cc3)c(=O)n2CC(=O)O)C1=O (stereo not shown) [(44)]	0.330	24.5	12.9	B (the compound is good in the subtype identification (namely, the resolution R is 0.15 or more and less than 0.5))	
COc1ccc(N2c3ccc(/C=c4/s/c(=C5/SC(=S)N(Cc6ccccc6)C5=O)n(CC(=O)O)c4=O)cc3C3CCCC32)cc1 (stereo not shown) [(54)]	0.531	154	211	A (The compound is very good in the subtype identification (namely, the resolution R is 0.5 or more))	
O=C(O)CCC(C(=O)O)N1C(=O)/C(=C\c2ccc3c(c2)C2CCCC2N3c2ccccc2)SC1=S (stereo not shown) [(23)]	0.185	1.10	1.48	B (the compound is good in the subtype identification (namely, the resolution R is 0.15 or more and less than 0.5))	
CC1=C(S(=O)(=O)O)C(C)=[N+]2C1=C(C)c1c(C)c(S(=O)(=O)O)c(C)n1[B-]2(F)F [(165)]					Resolution ratio R [1]: 0.183; Evaluation of macrophage subtype identification [2]: B (the compound is good in the subtype identification (namely, the resolution R is 0.15 or more and less than 0.5)); Peak position of M1 macrophage [3]: 1.25; Peak position of M2 macrophage [4]: 2.00
CCN(CC)c1ccc2cc(C(=O)c3cc4ccc(N(CC)CC)cc4oc3=O)c(=O)oc2c1 [comparative compound (4), reference compound]					Resolution ratio R [7]: 0.053; Evaluation of macrophage subtype identification [8]: C (the compound cannot identify the subtypes (namely, the resolution R is less than 0.15)); difference in the staining intensity between the M1 macrophages and the M2 macrophages / identification (mouse bone marrow derived): no difference in the staining intensity; Peak position of M1 macrophage [9]: 0.88; Peak position of M2 macrophage [10]: 1.05; Selectivity (subtype strongly stained, general formula (10) dyes (Table 8)): No
CSc1ccc(N2c3ccc(/C=C4/SC(=S)N(CC(=O)O)C4=O)cc3C3CCCC32)cc1 (stereo not shown) [(30)]	0.257	55.1	73.9	B (the compound is good in the subtype identification (namely, the resolution R is 0.15 or more and less than 0.5))	
Cc1cc(C)n2c1C=C1C=CC(CCC(=O)O)=[N+]1[B-]2(F)F [(157)]					Resolution ratio R [1]: 0.637; Evaluation of macrophage subtype identification [2]: A (The compound is very good in the subtype identification (namely, the resolution R is 0.5 or more)); Peak position of M1 macrophage [3]: 2.57; Peak position of M2 macrophage [4]: 5.62
CCN1C(=O)/C(=c2\s/c(=C/c3ccc4c(c3)CC(C)N4CC)c(=O)n2CC(=O)O)SC1=S (stereo not shown) [(57)]	0.167	4.20	3.59	B (the compound is good in the subtype identification (namely, the resolution R is 0.15 or more and less than 0.5))	
C=CCN1C(=O)/C(=c2\s/c(=C/c3ccc4c(c3)C3CCCC3N4Cc3ccccc3)c(=O)n2CC(=O)OCC)SC1=S (stereo not shown) [(52)]	0.756	3.90	1.68	A (The compound is very good in the subtype identification (namely, the resolution R is 0.5 or more))	
CCN(CC)c1ccc2cc(-c3nc4cc(C(=O)O)ccc4o3)c(=O)oc2c1 [(127)]					Resolution ratio R [7]: 0.381; Evaluation of macrophage subtype identification [8]: B (the compound is good in the subtype identification (namely, the resolution R is 0.15 or more and less than 0.5)); Peak position of M1 macrophage [9]: 3.99; Peak position of M2 macrophage [10]: 6.00
